Laboratory results as given in patent publication US8192962B2, “Processes for detecting toxic substances” (Daikin Industries, Ltd., priority 2001, dated 2012).

System: Unknown protein yeast genes
Test: DNA chip mRNA expression in yeast, unknown protein yeast genes (Table 1)
Type: cell-based, Saccharomyces cerevisiae S288C
Protocol: Yeast (Saccharomyces cerevisiae S288C (α SUC2mal mel gap2 CUP1)) were incubated at 25° C. on YPD medium (yeast extract 1%, polypepton 2%, glucose 2%). One of toxic chemical substances was added to the cells at logarithmic growth phase, and the cells were further incubated for two hours. Cells were cultured without any chemical substance in the same condition, and were used as control. Concentrations of the chemical substances were defined to inhibit the growth of the yeast but not lead to death.
After completion of the incubation, the culture was centrifuged to collect the cells. To the cells, sodium acetate buffer (50 mM sodium acetate, 10 mM EDTA, 1% SDS) was added, and the mixture was shaken at 65° C. for five minutes, followed by returning to room temperature, and obtaining the supernatant, of which the procedures were repeated two times. To the supernatant, ½ amount of a solution of phenol/chloroform was added, and the mixture was centrifuged to give a supernatant, which was added with an equal amount of chloroform, and the mixture was centrifuged to give a supernatant. To the supernatant, an equal amount of isopropanol containing 0.3 M sodium acetate was added, and the mixture was allowed to stand at room temperature for 30 minutes, after which the mixture was centrifuged to give a sediment of the whole RNAs. Seventy % ethanol was added to the sediment, and the mixture was again centrifuged to give a sediment, which was then dried and dissolved in water. mRNA was isolated from the whole RNAs as followings. In view of the fact that a poly A chain is attached to the 3′ terminus of mRNA, a polynucleotide having a poly T structure which was immobilized on the surface of latex beads was used to trap the mRNA, and then the mRNA was washed and eluted with spine column (Oligotex-dT30<Super>mRNA Purification Kit, Takara). Reverse transcription of the mRNA was conducted with a reverse transcriptase (Super Script II Reverse Transcriptase; catalogue No. 18064-014, GibcoBRL) using fluorescence-labeled nucleotides to give cDNAs that were introduced with Cy3-dUTP or Cy5-dUTP during the reverse transcription.
The labeled cDNAs were dissolved in TE buffer (10mM Tris-HCl/1 mM EDTA, pH8.0), and the solution was dropped on the DNA chip containing the whole genes of yeast (DNA Chip Research Inc. Japan) so that the cDNAs were hybridized on the DNA chip at 65° C. for over 12 hours. The fluoresces intensity of the DNA chip was read with a scanner, and the ratio relative to the fluorescence intensity resulting from the absence of chemical substance was estimated as the following, which is shown in Tables 1 to 9: […]

`CCCCC[C@H](O)CC(=O)CCc1ccc(O)c(OC)c1` [(13), gingerol] was tested, and the “The level of expressed mRNA in the presence of chemical substance/The level of expressed mRNA in the absence of chemical substance” value (yeast gene YLR415C) was 1.0, the “The level of expressed mRNA in the presence of chemical substance/The level of expressed mRNA in the absence of chemical substance” value (yeast gene YLR421C, incubated two hours with substance) was 1.6 and the “The level of expressed mRNA in the presence of chemical substance/The level of expressed mRNA in the absence of chemical substance” value (yeast gene YLR427W) was 2.5. The “The level of expressed mRNA in the presence of chemical substance/The level of expressed mRNA in the absence of chemical substance” value (yeast gene YLR460C) was 0.7, the “The level of expressed mRNA in the presence of chemical substance/The level of expressed mRNA in the absence of chemical substance” value (yeast gene YML013W) was 1.2 and the “The level of expressed mRNA in the presence of chemical substance/The level of expressed mRNA in the absence of chemical substance” value (yeast gene YML029W) was 2.0. For the same compound, the “The level of expressed mRNA in the presence of chemical substance/The level of expressed mRNA in the absence of chemical substance” value (yeast gene YML041C) was 1.2, the “The level of expressed mRNA in the presence of chemical substance/The level of expressed mRNA in the absence of chemical substance” value (yeast gene YML079W) was 1.6 and the “The level of expressed mRNA in the presence of chemical substance/The level of expressed mRNA in the absence of chemical substance” value (yeast gene YMR068W) was 1.4. The “The level of expressed mRNA in the presence of chemical substance/The level of expressed mRNA in the absence of chemical substance” value (yeast gene YMR071C) was 1.3, the “The level of expressed mRNA in the presence of chemical substance/The level of expressed mRNA in the absence of chemical substance” value (yeast gene YMR102C, incubated two hours with chemical substance) was 4.4 and the “The level of expressed mRNA in the presence of chemical substance/The level of expressed mRNA in the absence of chemical substance” value (yeast gene YMR160W) was 1.6. The “The level of expressed mRNA in the presence of chemical substance/The level of expressed mRNA in the absence of chemical substance” value (yeast gene YMR258C, incubated two hours with substance) was 1.6, the “The level of expressed mRNA in the presence of chemical substance/The level of expressed mRNA in the absence of chemical substance” value (yeast gene YMR315W) was 2.5 and the “The level of expressed mRNA in the presence of chemical substance/The level of expressed mRNA in the absence of chemical substance” value (yeast gene YNL026W) was 1.7. The “The level of expressed mRNA in the presence of chemical substance/The level of expressed mRNA in the absence of chemical substance” value (yeast gene YNL058C) was 0.6, the “The level of expressed mRNA in the presence of chemical substance/The level of expressed mRNA in the absence of chemical substance” value (yeast gene YNL063W) was 1.5 and the “The level of expressed mRNA in the presence of chemical substance/The level of expressed mRNA in the absence of chemical substance” value (yeast gene YNL176C) was 0.6. For the same compound, the “The level of expressed mRNA in the presence of chemical substance/The level of expressed mRNA in the absence of chemical substance” value (yeast gene YNL194C) was 1.5, the “The level of expressed mRNA in the presence of chemical substance/The level of expressed mRNA in the absence of chemical substance” value (yeast gene YNL200C) was 1.1 and the “The level of expressed mRNA in the presence of chemical substance/The level of expressed mRNA in the absence of chemical substance” value (yeast gene YNL253W) was 1.1. The “The level of expressed mRNA in the presence of chemical substance/The level of expressed mRNA in the absence of chemical substance” value (yeast gene YNL276C) was 1.5, the “The level of expressed mRNA in the presence of chemical substance/The level of expressed mRNA in the absence of chemical substance” value (yeast gene YNL300W, incubated two hours with chemical substance) was 0.7 and the “The level of expressed mRNA in the presence of chemical substance/The level of expressed mRNA in the absence of chemical substance” value (yeast gene YNR051C) was 2.1. For the same compound, the “The level of expressed mRNA in the presence of chemical substance/The level of expressed mRNA in the absence of chemical substance” value (yeast gene YOL026C) was 1.2, the “The level of expressed mRNA in the presence of chemical substance/The level of expressed mRNA in the absence of chemical substance” value (yeast gene YOL031C) was 2.4 and the “The level of expressed mRNA in the presence of chemical substance/The level of expressed mRNA in the absence of chemical substance” value (yeast gene YOL084W, incubated two hours with substance) was 6.4. For the same compound, the “The level of expressed mRNA in the presence of chemical substance/The level of expressed mRNA in the absence of chemical substance” value (yeast gene YOL101C) was 0.2, the “The level of expressed mRNA in the presence of chemical substance/The level of expressed mRNA in the absence of chemical substance” value (yeast gene YOR022C) was 1.7 and the “The level of expressed mRNA in the presence of chemical substance/The level of expressed mRNA in the absence of chemical substance” value (yeast gene YOR087W) was 1.2. For the same compound, the “The level of expressed mRNA in the presence of chemical substance/The level of expressed mRNA in the absence of chemical substance” value (yeast gene YOR138C) was 1.8, the “The level of expressed mRNA in the presence of chemical substance/The level of expressed mRNA in the absence of chemical substance” value (yeast gene YOR253W) was 0.5 and the “The level of expressed mRNA in the presence of chemical substance/The level of expressed mRNA in the absence of chemical substance” value (yeast gene YOR267C) was 1.4. For the same compound, the “The level of expressed mRNA in the presence of chemical substance/The level of expressed mRNA in the absence of chemical substance” value (yeast gene YOR338W) was 1.4, the “The level of expressed mRNA in the presence of chemical substance/The level of expressed mRNA in the absence of chemical substance” value (yeast gene YOR391C) was 2.3 and the “The level of expressed mRNA in the presence of chemical substance/The level of expressed mRNA in the absence of chemical substance” value (yeast gene YPL005W) was 1.2. The “The level of expressed mRNA in the presence of chemical substance/The level of expressed mRNA in the absence of chemical substance” value (yeast gene YPL087W, incubated two hours with chemical substance) was 4.4, the “The level of expressed mRNA in the presence of chemical substance/The level of expressed mRNA in the absence of chemical substance” value (yeast gene YPL150W) was 2.1 and the “The level of expressed mRNA in the presence of chemical substance/The level of expressed mRNA in the absence of chemical substance” value (yeast gene YPL152W) was 1.4. For the same compound, the “The level of expressed mRNA in the presence of chemical substance/The level of expressed mRNA in the absence of chemical substance” value (yeast gene YPL168W) was 1.0, the “The level of expressed mRNA in the presence of chemical substance/The level of expressed mRNA in the absence of chemical substance” value (yeast gene YPL180W) was 1.5 and the “The level of expressed mRNA in the presence of chemical substance/The level of expressed mRNA in the absence of chemical substance” value (yeast gene YPL188W) was 0.9. For the same compound, the “The level of expressed mRNA in the presence of chemical substance/The level of expressed mRNA in the absence of chemical substance” value (yeast gene YPL221W) was 1.0, the “The level of expressed mRNA in the presence of chemical substance/The level of expressed mRNA in the absence of chemical substance” value (yeast gene YPL225W) was 0.8 and the “The level of expressed mRNA in the presence of chemical substance/The level of expressed mRNA in the absence of chemical substance” value (yeast gene YPL280W) was 2.4. The “The level of expressed mRNA in the presence of chemical substance/The level of expressed mRNA in the absence of chemical substance” value (yeast gene YPR049C) was 1.6, the “The level of expressed mRNA in the presence of chemical substance/The level of expressed mRNA in the absence of chemical substance” value (yeast gene YPR146C) was 1.3 and the “The level of expressed mRNA in the presence of chemical substance/The level of expressed mRNA in the absence of chemical substance” value (yeast gene YPR148C) was 1.2. The “The level of expressed mRNA in the presence of chemical substance/The level of expressed mRNA in the absence of chemical substance” value (yeast gene YPR158W, incubated two hours with substance) was 1.6 and the “The level of expressed mRNA in the presence of chemical substance/The level of expressed mRNA in the absence of chemical substance” value (yeast gene YPR172W) was 1.3.
